ChEMBL document CHEMBL1150657, “Assessment of the antiprotozoal activity of Galphimia glauca and the isolation of new nor-secofriedelanes and nor-friedelanes” (J Nat Prod, 2002)

Legend:
KB = assay: Cytotoxicity against human KB cells; format: cell-based
[1] = test system: Trypanosoma brucei brucei; assay: Antitrypanosomal activity against Trypanosoma brucei brucei S427 blood stream trypomastigotes; format: functional, organism-based
Plasmodium falciparum = assay: Antiprotozoal activity against Plasmodium falciparum K1; format: functional, organism-based
Leishmania donovani = assay: Antileishmanial activity against Leishmania donovani (MHOM/ET/67/L82) promastigotes; format: functional, organism-based

Compound CCN(CC)CCCC(C)Nc1ccnc2cc(Cl)ccc12 (stereo not drawn) [CHLOROQUINE] has an IC50 (KB) of 51.4 µg/mL.

For C=C1C[C@H](C(=O)OC)[C@]2(C)CC[C@]3(C)[C@H]4[C@H](O)[C@@H](O)[C@]5(COC(C)=O)[C@@H](C)[C@@H](OC(C)=O)CC[C@H]5[C@]4(C)CC[C@@]3(O)[C@]2(O)C1 [GALPHIMIDIN], the IC50 [1] was over 100 µM, the IC50 (Plasmodium falciparum) was over 100 µM and the IC50 (KB) was over 100 µM. For the same compound, the IC50 (Leishmania donovani) was over 100 µM.

For C=C1CC[C@]2(C)CC[C@]3(C)[C@H]4[C@H](OC(C)=O)C[C@]5(COC(C)=O)[C@@H](C)OC(=O)[C@H]6O[C@H]6[C@H]5[C@]4(C)CC[C@@]3(C(=O)OC)[C@]2(O)C1 [GALPHIN A], the IC50 [1] was over 100 µM, the IC50 (Plasmodium falciparum) was over 100 µM and the IC50 (KB) was over 100 µM. For the same compound, the IC50 (Leishmania donovani) was over 100 µM.

C=C1C[C@@H](OC(C)=O)[C@]2(C)CC[C@]3(C)[C@H]4[C@H](OC(C)=O)C[C@]5(COC(C)=O)[C@@H](C)OC(=O)[C@H]6O[C@H]6[C@H]5[C@]4(C)CC[C@@]3(C(=O)OC)[C@]2(O)C1 [GALPHIN B] was tested, and the IC50 [1] was over 100 µM, the IC50 (Plasmodium falciparum) was over 100 µM and the IC50 (KB) was over 100 µM. It also gave an IC50 (Leishmania donovani) of over 100 µM.

C=C1C[C@@H](OC(C)=O)[C@]2(C)CC[C@]3(C)[C@H]4[C@H](OC(C)=O)C[C@]5(COC(C)=O)[C@@H](C)OC(=O)[C@H]6O[C@H]6[C@H]5[C@]4(C)C[C@H](OC(C)=O)[C@@]3(C(=O)OC)[C@]2(O)C1 [GALPHIN C] showed an IC50 [1] of over 100 µM, an IC50 (Plasmodium falciparum) of over 100 µM and an IC50 (KB) of over 100 µM. The IC50 (Leishmania donovani) was over 100 µM.

Work on N=C(N)c1ccc(OCCCCCOc2ccc(C(=N)N)cc2)cc1 [PENTAMIDINE] yielded an IC50 [1] of 0.0006 µg/mL, an IC50 (KB) of 0.11 µg/mL and an IC50 (Leishmania donovani) of 0.24 µg/mL.

With COc1cc([C@@H]2c3cc4c(cc3[C@H](O)[C@H]3COC(=O)[C@H]23)OCO4)cc(OC)c1OC [PODOFILOX] the IC50 (KB) was 0.00621 µg/mL.

O=c1c(O)c(-c2ccc(O)c(O)c2)oc2cc(O)cc(O)c12 [QUERCETIN] showed an IC50 [1] of 4.5 µg/mL, an IC50 (Plasmodium falciparum) of 6.5 µg/mL and an IC50 (KB) of 136 µg/mL. For the same compound, the IC50 (Leishmania donovani) was 29.5 µg/mL.

CC[C@H](/C=C/[C@@H](C)[C@H]1CC[C@H]2[C@@H]3CC=C4C[C@@H](O[C@@H]5O[C@H](CO)[C@@H](O)[C@H](O)[C@H]5O)CC[C@]4(C)[C@H]3CC[C@]12C)C(C)C [STIGMASTEROL GLUCOSIDE] was tested, and the IC50 [1] was over 100 µM, the IC50 (Plasmodium falciparum) was over 100 µM and the IC50 (KB) was over 100 µM. For the same compound, the IC50 (Leishmania donovani) was over 100 µM.

CC[C@H](/C=C/[C@@H](C)[C@H]1CC[C@H]2[C@@H]3CC=C4C[C@@H](O)CC[C@]4(C)[C@H]3CC[C@]12C)C(C)C [STIGMASTEROL] gave an IC50 [1] of over 100 µM, an IC50 (Plasmodium falciparum) of over 100 µM and an IC50 (KB) of over 100 µM. The IC50 (Leishmania donovani) was over 100 µM.
